The values that follow come from US6534496B1, “Thermogenic composition and benzazepine thermogenics” (Takeda Chemical Industries, Inc., priority 1997, dated 2003).

Structures are written as SMILES. Structures can show the parent of a compound that is named as a salt. Marks after values point to notes of the source that are not given here.

Data set [1] in a line: Assay of thermogenic activity in mice (Test Example 4). It counts as in vivo, male C57BL db/db mice. Conditions: 1 mg/kg orally for 6 days; 24 hours-average regional temperature after the final administration; N=6. The procedure:
The telethermometer (VltaView™, Mini-Mitter Co., Inc., USA) was inplanted subcutaneously border on the scapulae of male C57BL db/db mice (CLEA Japan Inc., N=6) anesthetized with ether. After 7 days acclimatization, 1 mg/kg of the compound which was obtained in Example 23, was orally administrated for 6 days. The 24 hours-average regional temperature after the final administration was measured. The control was administrated 0.5% methylcellulose solution.

Data set [2] in a line: Assay of reducing activity against weight gain of mice. Format: in vivo, Male C57BL db/db mice. How it is done:
Male C57BL db/db mice (CLEA Japan Inc., 10 weeks old) was pretreated for 7 days, with solid feed (CLEA Japan Inc., CE-2). After acclimatization, 0.3 mg/kg or 1.0 mg/kg of the compound which, was obtained in Example 23, was oraly administrated for 6 weeks. Body weight was measured after the final administration. After the measurement, total blood was successively drawn from the orbital vain, and the visceral fat was collected and its weight was measured. Statistics analysis was carried out with Dunnett anlalysis.

The test system of data set [3] is murine preadipocyte line (3T3-L1). Nature of the data set: Assay of intraadipocyte cAMP increasing activity using murine preadipocyte line (3T3-L1) (Test Example 3, compounds of the Examples). It counts as cell-based. Conditions: Table 14. The procedure:
The intraadipocyte cAMP concentration-increasing activity of the above compound (I) was determined in an assay system using murine preadipocyte line 3T3-L1. Thus, 3T3-L1 preadipocytes were seeded onto a 96-well microtiter plate (10,000 cells/well) and cultured for 5-6 days until a confluent growth was formed. Thereafter, the adipocytes were further cultured for 72 hours. The test compound (I) (10^−5M, 10^−6M, 10^−7M, 10^−8M, and 10^−9M) was then added and the plate was allowed to sit at 37° C. for 40 minutes. The cells were washed with 3 portions of phosphate buffer at 4° C. (100 μl/well). Then, 0.1 N hydrochloric acid was added and the cells were denatured at 95° C. for 10 minutes. From each well, 25 μl was aspirated and dissolved in 75 μl of the assay a buffer included in Cyclic AMP Enzyme Immunoassay Kit (Kayman Chemical Company, USA). Using a 50 μl portion as the sample, cAMP was assayed using the above-mentioned Kit. Thus, using a 96-well microtiter plate precoated with anti-rabbit IgG mouse antibody, the above sample (50 μl) as well as the Cyclic AMP Tracer (50 μl) and Cyclic AMP Rabbit Antibody (50 μl) from the Kit were added and the plate was incubated at room temperature for 18 hours. After asperation, the plate was washed with 4 portions of the wash buffer (400 μl/well). Then, 200 μl of the color reagent included in the Kit was added to each well and the plate was incubated at room temperature with'shaking for 60 minutes. After completion of the reaction, the absorbance was measured at 405 nm to quantitate the cAMP.
Each value is the mean result of 4 experiments. The test for statistical significance against the CAMP concentration of the control experiment (the test compound not added) was carried out by the known ANOVA. (* p<05 vs. control)
Using the compounds obtained in Examples 1 through 130, as well as their salts, their intraadipocyte cAMP increasing activities were assayed by the same procedure as in Test Example 1.

Setting [4] is: second line of Example 23, dose printed 0.3 mg/kg, orally for 6 weeks.
The mark [5] stands for this setting: concentration of test compound 10^−5M.
[6] abbreviates: concentration of test compound 10^−6M.
Where [7] appears, read: concentration of test compound 10^−7M.
[8] abbreviates: concentration of test compound 10^−8M.
Setting [9] is: concentration of test compound 10^−9M.

With `CC(=O)N1CCC(CCC(=O)c2ccc3c(c2)CCN(Cc2ccccc2)CC3)CC1.Cl` [Example 23, 3-(1-Acetyl-4-piperidinyl)-1-[3-(phenylmethyl)-2,3,4,5-tetrahydro-1H-3-benzazepin-7-yl]-1-propanone Hydrochloride], the Regional temperature in data set [1] amounted to 35.54 °C. In data set [2] (0.3 mg/kg orally for 6 weeks), the “Amount of visceral fat (average ± S.E.)” value is recorded as 5.47 ± 0.36 g; the “Body weight, ending date of administration (average ± S.E.)” value turned out to be 40.87 ± 1.57 g; the “Body weight, starting date of administration (average ± S.E.)” value is 40.21 ± 0.48 g. Further, in data set [2] (1.0 mg/kg orally for 6 weeks), the “Amount of visceral fat (average ± S.E.)” value came out at 5.13 ± 0.39 g. In data set [2] (setting [4]), the “Body weight, ending date of administration (average ± S.E.)” value came out at 39.75 ± 1.55 g and the “Body weight, starting date of administration (average ± S.E.)” value stood at 40.40 ± 0.69 g.

`O=C(CCC1CCNCC1)c1ccc2c(c1)CCN(Cc1ccccc1)CC2` [Example 24, 1-[3-(phenylmethyl)-2,3,4,5-tetrahydro-1H-3-benzazepin-7-yl]-3-(4-piperidinyl)-1-propanone] returned a melting point of 134 to 137 °C.

Take `CC(=O)N1CCC(CCC(=O)c2ccc3c(c2)CCN3c2ccncc2)CC1` [Example 61, 3-(1-Acetyl-4-piperidinyl)-1-[1-(4-pyridyl)-2,3-dihydroindol-5-yl]-1-propanone]: the melting point lay within 157 to 158 °C.

For `CC(=O)N1CCC(CCC(=O)c2cc3c4c(c2)CCN4C(=O)CC3)CC1` [Example 66, 8-[3-(1-Acetyl-4-piperidinyl)-1-oxopropyl]-1,2,5,6-tetrahydro-4H-pyrrolo[3,2,1-ij]quinolin-4-one], the melting point is 160 to 161 °C.

Turning to `CC(=O)N1CCC(CCC(=O)c2ccc3c4c2CCCC4CN3C(C)=O)CC1` (centres unmarked) [Example 67, 3-(1-Acetyl-4-piperidinyl)-1-(1-acetyl-1,2,2a,3,4,5-hexahydrobenz[cd]indol-6-yl)-1-propanone], the melting point fell in the range of 130 to 132 °C.

In turn, `CC(=O)N1CCC(CCC(=O)c2ccc3c(c2)CNc2ccccc2CC3)CC1` [Example 69, 3-(1-Acetyl-4-piperidinyl)-1-(5,6,11,12-tetrahydrodibenz[bf]azocin-8-yl)-1-propanone] showed a melting point of 153 to 155 °C.

In the case of `CC(=O)N1CCC(CCCC(=O)c2ccc3c(c2)CCN(Cc2ccccc2C)CC3)CC1` [Example 125, 4-(1-Acetyl-4-piperidinyl)-1-[3-[(2-methylphenyl)methyl]-2,3,4,5-tetrahydro-1H-3-benzazepin-7-yl]-1-butanone], the melting point lay within 94 to 95 °C.

Take `Cc1ccccc1CN1CCc2ccc(C(=O)CCCC3CCN(Cc4ccccc4C)CC3)cc2CC1` [Example 127, 4-[1-[(2-Methylphenyl)methyl]-4-piperidinyl]-1-[3-[(2-methylphenyl)methyl]-2,3,4,5-tetrahydro-1H-3-benzazepin-7-yl]-1-butanone Dihydrochloride]: the cAMP in data set [3] (setting [5]) was 554.0* pmol/ml; in data set [3] (setting [6]) it was 100.0* pmol/ml; in data set [3] (setting [7]) it was 10.1* pmol/ml; in data set [3] (setting [8]), 4.7 pmol/mL; in data set [3] (setting [9]), 3.6 pmol/mL.

For the compound `Cc1ccccc1CN1CCc2ccc(C(=O)CCCC3CCN(Cc4cccc(Cl)c4)CC3)cc2CC1` [Example 130], the cAMP was 430.6* pmol/ml in data set [3] (setting [5]); 23.5* pmol/ml in data set [3] (setting [6]); 5.7* pmol/ml in data set [3] (setting [7]); 4.5 pmol/mL in data set [3] (setting [8]); 3.4 pmol/mL in data set [3] (setting [9]).

The compound `O=C(CCCC1CCN(Cc2cccc(O)c2)CC1)c1ccc2c(c1)CCN(Cc1ccccc1)CC2` [Example 157, 4-[1-[(3-Hydroxyphenyl)methyl]-4-piperidinyl]-1-[3-(phenylmethyl)-2,3,4,5-tetrahydro-1H-3-benzazepin-7-yl]-1-butanone] registered a melting point of 88 to 94 °C.

For `O=C(O)c1ccc(CN2CCC(CCCC(=O)c3ccc4c(c3)CCN(Cc3ccccc3)CC4)CC2)cc1` [Example 183, 4-[[4-[4-[3-(Phenylmethyl)-2,3,4,5-tetrahydro-1H-3-benzazepin-7-yl]-4-oxobutyl]-1-piperidinyl]methyl]benzoic Acid], the melting point fell in the range of 165 to 176 °C.

In the case of `Cc1ccccc1CN1CCc2ccc(C(=O)CCCC3CCN(Cc4ccccc4C(=O)O)CC3)cc2CC1` [Example 253, 2-[[4-[4-[3-[(2-Methylphenyl)methyl]-2,3,4,5-tetrahydro-1H-3-benzazepin-,7-yl]-4-oxobutyl]-1-piperidinyl]methyl)benzoic Acid], the melting point was in the range of 129 to 132 °C.

In the case of `Cc1ccccc1CN1CCc2ccc(C(=O)CCCC3CCN(Cc4cccc(C(=N)N)c4)CC3)cc2CC1` [Example 260], the melting point was 150 to 152 °C.

Take `N#Cc1ccccc1CN1CCc2ccc(C(=O)CCCC3CCN(Cc4ccccc4Cl)CC3)cc2CC1` [Example 265, 4-[1-[(2-Chlorophenyl)methyl]-4-piperidinyl]-1-[3-[(2-cyanophenyl)methyl]-2,3 4,5-tetrahydro-1H-3-benzazepin-7-yl]-1-butanone]: the melting point was in the range of 103 to 104 °C.

On to `N#Cc1cccc(CN2CCc3ccc(C(=O)CCCC4CCN(Cc5ccccc5Cl)CC4)cc3CC2)c1` [Example 267, 4-[1-[(2-Chlorophenyl)methyl]-4-piperidinyl]-1-[3-[(3-cyanophenyl)methyl]-2,3,4,5-tetrahydro-1H-3-benzazepin-7-yl]-1-butanone], for which the melting point fell in the range of 121 to 122 °C.

Broadly, the melting point is the temperature, or range, at which the solid turns liquid.
